Oligonucleotides are given in HELM: sugar(base)linkage, 5' to 3'; d 2'-deoxyribose, r ribose, m 2'-O-methylribose, p phosphate. ss, as = sense and antisense strand
Further: test concentration or dose not given here.

In the data set the target is UBE2N. In words: reporter assay of Huesken 2005. To be noted: siRNA. (In general: In a reporter assay the amount or activity of a reporter protein is the signal.)
Consider “RNA1{r(G)p.r(A)p.r(A)p.r(A)p.r(C)p.r(A)p.r(G)p.r(C)p.r(U)p.r(A)p.r(G)p.r(A)p.r(G)p.r(C)p.r(A)p.r(U)p.r(G)p.r(G)p.r(A)p.d(T)p.d(T)}|RNA2{r(U)p.r(C)p.r(C)p.r(A)p.r(U)p.r(G)p.r(C)p.r(U)p.r(C)p.r(U)p.r(A)p.r(G)p.r(C)p.r(U)p.r(G)p.r(U)p.r(U)p.r(U)p.r(C)p.d(T)p.d(A)}$$$RNA1{StrandType:ss}|RNA2{StrandType:as}$”, for which the normalised inhibition (eCFP-eYFP dual reporter) came out at 100%.

On to “RNA1{r(C)p.r(A)p.r(U)p.r(U)p.r(A)p.r(G)p.r(C)p.r(A)p.r(A)p.r(A)p.r(U)p.r(G)p.r(A)p.r(U)p.r(G)p.r(U)p.r(A)p.r(G)p.r(C)p.d(T)p.d(T)}|RNA2{r(G)p.r(C)p.r(U)p.r(A)p.r(C)p.r(A)p.r(U)p.r(C)p.r(A)p.r(U)p.r(U)p.r(U)p.r(G)p.r(C)p.r(U)p.r(A)p.r(A)p.r(U)p.r(G)p.d(G)p.d(A)}$$$RNA1{StrandType:ss}|RNA2{StrandType:as}$”, for which the normalised inhibition (eCFP-eYFP dual reporter) was 30.2%.

On to “RNA1{r(A)p.r(U)p.r(C)p.r(A)p.r(U)p.r(C)p.r(C)p.r(U)p.r(A)p.r(A)p.r(U)p.r(G)p.r(U)p.r(A)p.r(G)p.r(A)p.r(C)p.r(A)p.r(A)p.d(T)p.d(T)}|RNA2{r(U)p.r(U)p.r(G)p.r(U)p.r(C)p.r(U)p.r(A)p.r(C)p.r(A)p.r(U)p.r(U)p.r(A)p.r(G)p.r(G)p.r(A)p.r(U)p.r(G)p.r(A)p.r(U)p.d(A)p.d(A)}$$$RNA1{StrandType:ss}|RNA2{StrandType:as}$”, for which the normalised inhibition (eCFP-eYFP dual reporter) was found to be 46.4%.

With “RNA1{r(U)p.r(U)p.r(U)p.r(U)p.r(G)p.r(A)p.r(A)p.r(A)p.r(G)p.r(A)p.r(U)p.r(A)p.r(A)p.r(G)p.r(U)p.r(G)p.r(G)p.r(U)p.r(C)p.d(T)p.d(T)}|RNA2{r(G)p.r(A)p.r(C)p.r(C)p.r(A)p.r(C)p.r(U)p.r(U)p.r(A)p.r(U)p.r(C)p.r(U)p.r(U)p.r(U)p.r(C)p.r(A)p.r(A)p.r(A)p.r(A)p.d(T)p.d(A)}$$$RNA1{StrandType:ss}|RNA2{StrandType:as}$”, the normalised inhibition (eCFP-eYFP dual reporter) is 35.5%.

Substance “RNA1{r(G)p.r(G)p.r(A)p.r(C)p.r(U)p.r(U)p.r(U)p.r(U)p.r(A)p.r(A)p.r(A)p.r(C)p.r(U)p.r(U)p.r(G)p.r(A)p.r(A)p.r(C)p.r(U)p.d(T)p.d(T)}|RNA2{r(A)p.r(G)p.r(U)p.r(U)p.r(C)p.r(A)p.r(A)p.r(G)p.r(U)p.r(U)p.r(U)p.r(A)p.r(A)p.r(A)p.r(A)p.r(G)p.r(U)p.r(C)p.r(C)p.d(C)p.d(T)}$$$RNA1{StrandType:ss}|RNA2{StrandType:as}$” showed a normalised inhibition (eCFP-eYFP dual reporter) of 87.2%.

In the case of “RNA1{r(U)p.r(C)p.r(A)p.r(U)p.r(G)p.r(U)p.r(G)p.r(G)p.r(U)p.r(C)p.r(A)p.r(U)p.r(U)p.r(G)p.r(C)p.r(U)p.r(G)p.r(G)p.r(C)p.d(T)p.d(T)}|RNA2{r(G)p.r(C)p.r(C)p.r(A)p.r(G)p.r(C)p.r(A)p.r(A)p.r(U)p.r(G)p.r(A)p.r(C)p.r(C)p.r(A)p.r(C)p.r(A)p.r(U)p.r(G)p.r(A)p.d(A)p.d(A)}$$$RNA1{StrandType:ss}|RNA2{StrandType:as}$”, the normalised inhibition (eCFP-eYFP dual reporter) worked out at 50.6%.

For “RNA1{r(G)p.r(U)p.r(A)p.r(G)p.r(A)p.r(C)p.r(A)p.r(A)p.r(G)p.r(U)p.r(U)p.r(G)p.r(G)p.r(G)p.r(A)p.r(A)p.r(G)p.r(A)p.r(A)p.d(T)p.d(T)}|RNA2{r(U)p.r(U)p.r(C)p.r(U)p.r(U)p.r(C)p.r(C)p.r(C)p.r(A)p.r(A)p.r(C)p.r(U)p.r(U)p.r(G)p.r(U)p.r(C)p.r(U)p.r(A)p.r(C)p.d(A)p.d(T)}$$$RNA1{StrandType:ss}|RNA2{StrandType:as}$”, the normalised inhibition (eCFP-eYFP dual reporter) worked out at 94%.

In the case of “RNA1{r(A)p.r(C)p.r(U)p.r(U)p.r(G)p.r(A)p.r(A)p.r(C)p.r(U)p.r(A)p.r(U)p.r(U)p.r(C)p.r(C)p.r(U)p.r(U)p.r(C)p.r(C)p.r(A)p.d(T)p.d(T)}|RNA2{r(U)p.r(G)p.r(G)p.r(A)p.r(A)p.r(G)p.r(G)p.r(A)p.r(A)p.r(U)p.r(A)p.r(G)p.r(U)p.r(U)p.r(C)p.r(A)p.r(A)p.r(G)p.r(U)p.d(T)p.d(T)}$$$RNA1{StrandType:ss}|RNA2{StrandType:as}$”, the normalised inhibition (eCFP-eYFP dual reporter) was 96.1%.

“RNA1{r(C)p.r(A)p.r(A)p.r(C)p.r(G)p.r(A)p.r(A)p.r(G)p.r(C)p.r(C)p.r(C)p.r(A)p.r(A)p.r(G)p.r(C)p.r(C)p.r(A)p.r(U)p.r(A)p.d(T)p.d(T)}|RNA2{r(U)p.r(A)p.r(U)p.r(G)p.r(G)p.r(C)p.r(U)p.r(U)p.r(G)p.r(G)p.r(G)p.r(C)p.r(U)p.r(U)p.r(C)p.r(G)p.r(U)p.r(U)p.r(G)p.d(G)p.d(T)}$$$RNA1{StrandType:ss}|RNA2{StrandType:as}$” registered a normalised inhibition (eCFP-eYFP dual reporter) of 94%.

“RNA1{r(C)p.r(A)p.r(G)p.r(U)p.r(G)p.r(G)p.r(A)p.r(A)p.r(G)p.r(A)p.r(C)p.r(C)p.r(A)p.r(A)p.r(C)p.r(G)p.r(A)p.r(A)p.r(G)p.d(T)p.d(T)}|RNA2{r(C)p.r(U)p.r(U)p.r(C)p.r(G)p.r(U)p.r(U)p.r(G)p.r(G)p.r(U)p.r(C)p.r(U)p.r(U)p.r(C)p.r(C)p.r(A)p.r(C)p.r(U)p.r(G)p.d(C)p.d(T)}$$$RNA1{StrandType:ss}|RNA2{StrandType:as}$” gave a normalised inhibition (eCFP-eYFP dual reporter) of 78%.

Consider “RNA1{r(A)p.r(A)p.r(G)p.r(C)p.r(C)p.r(G)p.r(A)p.r(A)p.r(C)p.r(C)p.r(A)p.r(G)p.r(A)p.r(U)p.r(G)p.r(A)p.r(G)p.r(A)p.r(G)p.d(T)p.d(T)}|RNA2{r(C)p.r(U)p.r(C)p.r(U)p.r(C)p.r(A)p.r(U)p.r(C)p.r(U)p.r(G)p.r(G)p.r(U)p.r(U)p.r(C)p.r(G)p.r(G)p.r(C)p.r(U)p.r(U)p.d(T)p.d(G)}$$$RNA1{StrandType:ss}|RNA2{StrandType:as}$”, for which the normalised inhibition (eCFP-eYFP dual reporter) came to 88.3%.

“RNA1{r(A)p.r(G)p.r(C)p.r(G)p.r(G)p.r(A)p.r(G)p.r(C)p.r(A)p.r(G)p.r(U)p.r(G)p.r(G)p.r(A)p.r(A)p.r(G)p.r(A)p.r(C)p.r(C)p.d(T)p.d(T)}|RNA2{r(G)p.r(G)p.r(U)p.r(C)p.r(U)p.r(U)p.r(C)p.r(C)p.r(A)p.r(C)p.r(U)p.r(G)p.r(C)p.r(U)p.r(C)p.r(C)p.r(G)p.r(C)p.r(U)p.d(A)p.d(C)}$$$RNA1{StrandType:ss}|RNA2{StrandType:as}$” returned a normalised inhibition (eCFP-eYFP dual reporter) of 43.9%.

“RNA1{r(A)p.r(C)p.r(C)p.r(C)p.r(A)p.r(A)p.r(U)p.r(G)p.r(G)p.r(C)p.r(A)p.r(G)p.r(C)p.r(C)p.r(C)p.r(C)p.r(U)p.r(A)p.r(A)p.d(T)p.d(T)}|RNA2{r(U)p.r(U)p.r(A)p.r(G)p.r(G)p.r(G)p.r(G)p.r(C)p.r(U)p.r(G)p.r(C)p.r(C)p.r(A)p.r(U)p.r(U)p.r(G)p.r(G)p.r(G)p.r(U)p.d(A)p.d(T)}$$$RNA1{StrandType:ss}|RNA2{StrandType:as}$” came in with a normalised inhibition (eCFP-eYFP dual reporter) of 64%.

“RNA1{r(A)p.r(A)p.r(G)p.r(C)p.r(C)p.r(C)p.r(A)p.r(A)p.r(G)p.r(C)p.r(C)p.r(A)p.r(U)p.r(A)p.r(G)p.r(A)p.r(A)p.r(A)p.r(C)p.d(T)p.d(T)}|RNA2{r(G)p.r(U)p.r(U)p.r(U)p.r(C)p.r(U)p.r(A)p.r(U)p.r(G)p.r(G)p.r(C)p.r(U)p.r(U)p.r(G)p.r(G)p.r(G)p.r(C)p.r(U)p.r(U)p.d(C)p.d(G)}$$$RNA1{StrandType:ss}|RNA2{StrandType:as}$”: the normalised inhibition (eCFP-eYFP dual reporter) turned out to be 61.1%.

For the substance “RNA1{r(C)p.r(U)p.r(A)p.r(G)p.r(A)p.r(U)p.r(A)p.r(U)p.r(U)p.r(U)p.r(U)p.r(G)p.r(A)p.r(A)p.r(A)p.r(G)p.r(A)p.r(U)p.r(A)p.d(T)p.d(T)}|RNA2{r(U)p.r(A)p.r(U)p.r(C)p.r(U)p.r(U)p.r(U)p.r(C)p.r(A)p.r(A)p.r(A)p.r(A)p.r(U)p.r(A)p.r(U)p.r(C)p.r(U)p.r(A)p.r(G)p.d(A)p.d(C)}$$$RNA1{StrandType:ss}|RNA2{StrandType:as}$”, the normalised inhibition (eCFP-eYFP dual reporter) amounted to 85.6%.

On to “RNA1{r(C)p.r(G)p.r(U)p.r(U)p.r(U)p.r(C)p.r(A)p.r(U)p.r(G)p.r(A)p.r(C)p.r(C)p.r(A)p.r(A)p.r(A)p.r(A)p.r(U)p.r(U)p.r(U)p.d(T)p.d(T)}|RNA2{r(A)p.r(A)p.r(A)p.r(U)p.r(U)p.r(U)p.r(U)p.r(G)p.r(G)p.r(U)p.r(C)p.r(A)p.r(U)p.r(G)p.r(A)p.r(A)p.r(A)p.r(C)p.r(G)p.d(T)p.d(A)}$$$RNA1{StrandType:ss}|RNA2{StrandType:as}$”, for which the normalised inhibition (eCFP-eYFP dual reporter) came to 100%.

On to “RNA1{r(U)p.r(U)p.r(G)p.r(C)p.r(U)p.r(G)p.r(G)p.r(C)p.r(C)p.r(C)p.r(U)p.r(C)p.r(A)p.r(G)p.r(G)p.r(A)p.r(U)p.r(U)p.r(C)p.d(T)p.d(T)}|RNA2{r(G)p.r(A)p.r(A)p.r(U)p.r(C)p.r(C)p.r(U)p.r(G)p.r(A)p.r(G)p.r(G)p.r(G)p.r(C)p.r(C)p.r(A)p.r(G)p.r(C)p.r(A)p.r(A)p.d(T)p.d(G)}$$$RNA1{StrandType:ss}|RNA2{StrandType:as}$”, for which the normalised inhibition (eCFP-eYFP dual reporter) amounted to 50.2%.

“RNA1{r(A)p.r(A)p.r(U)p.r(G)p.r(U)p.r(A)p.r(G)p.r(A)p.r(C)p.r(A)p.r(A)p.r(G)p.r(U)p.r(U)p.r(G)p.r(G)p.r(G)p.r(A)p.r(A)p.d(T)p.d(T)}|RNA2{r(U)p.r(U)p.r(C)p.r(C)p.r(C)p.r(A)p.r(A)p.r(C)p.r(U)p.r(U)p.r(G)p.r(U)p.r(C)p.r(U)p.r(A)p.r(C)p.r(A)p.r(U)p.r(U)p.d(A)p.d(G)}$$$RNA1{StrandType:ss}|RNA2{StrandType:as}$” gave a normalised inhibition (eCFP-eYFP dual reporter) of 93.8%.

In turn, “RNA1{r(G)p.r(C)p.r(C)p.r(G)p.r(A)p.r(A)p.r(C)p.r(C)p.r(A)p.r(G)p.r(A)p.r(U)p.r(G)p.r(A)p.r(G)p.r(A)p.r(G)p.r(C)p.r(A)p.d(T)p.d(T)}|RNA2{r(U)p.r(G)p.r(C)p.r(U)p.r(C)p.r(U)p.r(C)p.r(A)p.r(U)p.r(C)p.r(U)p.r(G)p.r(G)p.r(U)p.r(U)p.r(C)p.r(G)p.r(G)p.r(C)p.d(T)p.d(T)}$$$RNA1{StrandType:ss}|RNA2{StrandType:as}$” came in with a normalised inhibition (eCFP-eYFP dual reporter) of 82.6%.

“RNA1{r(A)p.r(G)p.r(C)p.r(C)p.r(C)p.r(A)p.r(A)p.r(G)p.r(C)p.r(C)p.r(A)p.r(U)p.r(A)p.r(G)p.r(A)p.r(A)p.r(A)p.r(C)p.r(A)p.d(T)p.d(T)}|RNA2{r(U)p.r(G)p.r(U)p.r(U)p.r(U)p.r(C)p.r(U)p.r(A)p.r(U)p.r(G)p.r(G)p.r(C)p.r(U)p.r(U)p.r(G)p.r(G)p.r(G)p.r(C)p.r(U)p.d(T)p.d(C)}$$$RNA1{StrandType:ss}|RNA2{StrandType:as}$” had a normalised inhibition (eCFP-eYFP dual reporter) of 91.7%.

For the origin of these results see the OligoGym collection.
